# In US20190183959A1, “COMPOSITIONS, KITS AND METHODS FOR TREATING TYPE II DIABETES MELLITUS” (VITNOVO, INC., priority 2017, published 2019):
# Tested on: NIDDM mice
# Assay: Oral glucose tolerance test after 28 days of oral dosing in NIDDM db/db mice (Example 2)
# Type: in vivo, mouse
# Conditions: HC extract 80 mg/Kg, sitagliptin 40 mg/Kg, p.o.
# Procedure: Non-insulin dependent diabetic mellitus (NIDDM) male db/db (BKS.Cg-Dock 7^m+/+Lepr^db/JNarl) were used in the present study. They were supplied by National Laboratory Animal Center (NLAC) (Taipei, Taiwan) or by Jackson Laboratory (Bar Harbor, Me., USA). […] In Example 2, test compounds (i.e., HC extract (40 mg/Kg from day 1 to day 14; 80 mg/Kg from day 14 to day 28, p.o.), sitagliptin (40 mg/Kg, p.o.), or the combination of HC extract and sitagliptin) at the designated dose was fed to each mice by oral gavage from day 1, and continued for 27 consecutive days to day 28. […] Blood glucose, insulin, glucagon, glycated haemoglobin (HbA1c) levels were measured on designated days after overnight fasting. Then, oral glucose tolerance test (OGTT) was performed to evaluate effects of respective treatments on glucose homeostasis. Body weight of each test animal was also measured during the study period. The db/db mice were randomly divided into 4 groups: (1) the vehicle control group, (2) the HC extract (80 mg/kg), (3) the sitagliptin (40 mg/Kg) group, and […] the HC extract (80 mg/kg)+sitagliptin (40 mg/Kg) group. The mice were fasted for 5 hours and then respectively received the indicated treatments. […] The animals were treated by the manner described in the “Material and Methods” section.
structure (smiles),measurement,setting,value
N[C@@H](CC(=O)N1CCn2c(nnc2C(F)(F)F)C1)Cc1cc(F)c(F)cc1F [sitagliptin],reduction in the level of total blood glucose (FIG. 3),30 minutes time point post glucose treatment,about 11.3%
same,effect on fasting blood glucose level (FIG. 2),combination judged 30 minutes post glucose treatment vs either alone,reduction in the fasting blood glucose level
